Assays:
[1] = tested on: murine 2-5A-dependent RNase (truncated recombinant clone ZB1 and murine L cell enzyme); assay: UV covalent crosslinking of 32P-2-5A probe with unlabeled oligonucleotide competitors, murine enzyme; assay type: binding; settings: for concentration that prevents 2-5A probe binding: 32P-2-5A probe 2.4 nM, both recombinant (ZB1) and naturally occurring murine protein; for competition with 2-5A probe binding: competitor 100 nM, recombinant 74 kDa protein (clone ZB1) from wheat germ extract, similar profile with murine L929 cell enzyme
Description: FIG. 2A is a specific affinity of truncated murine 2-5A-dependent RNase for 2-5A. UV covalent crosslinking of the ^32 P-2-5A probe (lanes 1-7) to protein is performed after translation reactions in wheat germ extract (5 μl) with murine 2-5A-dependent RNase mRNA (from clone ZB1) (lanes 1-3) or without added RNA (lane 4) or in extract of interferon treated mouse L cells (100 μg of protein) (lanes 5-7). Reactions are without added competitor (lanes 1, 4, and 5) or in the presence of either trimer core. […] Lanes 8 and 9 are produced by incubating the wheat germ extract with ^35 S-methionine in the absence or presence of 2-5A-dependent RNase mRNA, respectively.
Autoradiograms of the dried SDS/10% polyacrylamide gels are shown. Concentrations of the oligonucleotide competitors are indicated. I is inosine.
To obtain recombinant protein for characterization, the cDNA is transcribed and translated in cell-free systems. See Example. 2-5A binding activity is then determined by covalently crosslinking the 2-5A probe to the protein with uv light, for example, Nolan-Sorden, N. L. et al., Anal. Biochem., 184: 298-304 (1990). […] See FIG. 2A, lanes 2 and 3, respectively. There is no detectable 2-5A binding proteins in the wheat germ extract as shown in the incubation without added RNA, FIG. 2A, lane 4. For comparison, a similar profile of 2-5A binding activity is obtained for the 80 kDa 2-5A-dependentRNase from murine L929 cells, incubated without added oligonucleotide or with (A2'p)2 A or p3 (A2'p)2 A as competitors. In a further comparison, covalent linkage of the 2-5A probe to the about 74 kDa protein and to murine L929 cell 2-5A-dependent RNase followed by partial digestion with chymotrypsin produces an identical pattern of six labeled peptides. Similarly, partial digestion of the two labeled proteins with S. aureus V8 protease also produces identical patterns of labeled cleavage products.
The 2-5A binding functions of the recombinant and naturally occurring forms of murine 2-5A-dependent RNase are characterized by covalent crosslinking to the 2-5A probe in the presence of unlabeled 2-5A or 2-5A analogues as competitors. […] In comparison, a 500-fold higher concentration of (A2'p)2 A (10 μM) is required to prevent probe binding to both proteins. See lane 13. The dimer species, p3 A2'pA, is unable to prevent the 2-5A probe from binding to the proteins even at a concentration of 10 μM (lane 18). However, the inosine analogue, p3 I2'pA2'pA, Imai, J. et al., J. Biol. Chem., 260: 1390-1393 (1985), is able to prevent probe binding to both proteins but only when added at a concentration of about 1.0 μM (lane 22).
The synthesis of the 2-5A probe, p(A2'p)2 (br^8 A2'p)2 A[32P]Cp, and its crosslinking to 2-5A-dependent RNase is performed exactly as described. See Nolan-Sorden, N. L. et al., Anal. Biochem., 184: 298-304 (1990). Briefly, the 2-5A probe, about 0.7 to 2.5 nM at […], is incubated for about one hour on ice with cell extract prepared as described, Silverman, R. H. and Krause, D., Lymphokines and Interferons: A Practical Approach, I.R.L. Press, Oxford. England, pp. 149-193 (1987), in the absence or presence of unlabeled oligonucleotide competitors. Covalent crosslinking is done under a uv lamp (308 nm) for one hour on ice and the proteins are separated on SDS/10% polyacrylamide gels. Filter assays for 2-5A binding activity using the 2-5A probe for about one hour on ice, as described in Knight, M. et al., Nature, 288: 189-192 (1980).

[2] = tested on: human 2-5A-dependent RNase (recombinant and HeLa cell enzyme); assay: UV covalent crosslinking of 2-5A probe with unlabeled competitors, human enzyme; assay type: binding; settings: competitor 100 nM; recombinant human enzyme from wheat germ extract; same pattern with interferon-treated HeLa cell extract
Description: FIG. 5A is specific affinity of recombinant human 2-5A-dependent RNase for 2-5A. Crosslinking of the 2-5A probe (lanes 1-7) to protein is performed after translation reactions in wheat germ extract (5 μl) with human 2-5A-dependent RNase mRNA (lanes 1-3) or without added RNA (lane 4) or in extract of human interferon a treated (1000 units per ml for 16 h) human HeLa cells (350 μg of protein) (lanes 5-7). […] Incubations with ^35 S-methionine are shown in lanes 8 to 12. Lane 8 is with wheat germ extract and human 2-5A-dependent RNase mRNA. Reticulocyte lysate preadsorbed to 2-5A-cellulose is incubated with human 2-5A-dependent RNase MRNA in the absence (lane 9) or presence (lane 10) of cycloheximide, or in the absence of added mRNA (lane 11). […] The positions and relative molecular masses (in kDa) of the marker proteins are indicated.
The 2-5A binding properties of the recombinant and naturally occurring forms of human 2-5A-dependent RNase are compared by uv covalent crosslinking to the 2-5A probe. […] Radiolabeling of the cloned human 2-5A-dependent RNase with the 2-5A probe is not prevented by (A2'p)2 A. See FIG. 5A, lanes 1 and 2. […] See lane 3. The same pattern of 2-5A binding activity is obtained with 2-5A-dependent RNase in an extract of interferon-treated human HeLa cells. […]

[3] = tested on: 2-5A probe; assay: 2-5A binding activity of nested 3'-deletion mutants, filter binding assay and uv crosslinking assay; settings: protein expressed in wheat germ extract
Text: See Example and Knight et al. 1980). The positions of the P-loop motifs and the lengths of the translation products are indicated. Clone ZB1 encodes for amino acids designated as 1-656 in Table II, except for the last 5 amino acid residues which are Lys, Pro, Leu, Ser, and Gly. Clone ZB2 encodes for amino acids designated as 1-619 in Table II. Clone ZB3 encodes for amino acids designated as 1-515 in Table II. Clone ZB5 encodes for amino acids designated as 1-474 in Table II. Clone ZB9 encodes for amino acids designated as 1-403 in Table II. Clone ZB10 encodes for amino acids designated as 1-365 in Table II. Clone ZB13 encodes for amino acids designated as 1-294 in Table II. Clone ZB14 encodes for amino acids designated as 1-265 in Table II. Clone ZB15 encodes for amino acids designated as 1-218 in Table II.
To further define sequences involved in 2-5A binding, nested 3'-deletions of the murine 2-5A-dependent RNase cDNA, clone ZB1, are constructed, transcribed in vitro, and expressed in a wheat germ extract. […] The levels of 2-5A binding activity are determined with the 2-5A probe in both a filter binding assay, Knight, M. et al., Nature, 288: 189-192 (1980), and the uv crosslinking assay, Nolan-Sorden, N. L. et al., Anal. Biochem., 184: 298-304 (1990), with similar results. […]

[4] = tested on: 2-5A probe, Br-2-5A-[32P]pCp; assay type: binding

## (A2'p)2 A
[1]
  concentration that prevents 2-5A probe binding: 10 µM
  competition with 2-5A probe binding: fails to interfere with binding of the protein to the 2-5A probe
[2]
  competition with 2-5A probe binding: not prevented

## p3 (A2'p)2 A
[1]
  concentration that prevents 2-5A probe binding: about 20 nM
  competition with 2-5A probe binding: completely prevents probe binding
[2]
  competition with 2-5A probe binding: effectively competes with the 2-5A probe

## p3 A2'pA
[1]
  concentration that prevents 2-5A probe binding: > 10 µM

## p3 I2'pA2'pA
[1]
  concentration that prevents 2-5A probe binding: about 1.0 μM

B1: Clone ZB15: murine 2-5A-dependent RNase deletion mutant, amino acids 1 to 218, both P-loop motifs deleted (protein, UniProt Q05921 1-218, looked up, fragment)
chain: METPDYNTPQGGTPSAGSQRTVVEDDSSLIKAVQKGDVVRVQQLLEKGADANACEDTWGWTPLHNAVQAGRVDIVNLLLSHGADPHRRKKNGATPFIIAGIQGDVKLLEILLSCGADVNECDENGFTAFMEAAERGNAEALRFLFAKGANVNLRRQTTKDKRRLKQGGATALMSAAEKGHLEVLRILLNDMKAEVDARDNMGRNALIRTLLNWDCENV
[3]
  2-5A binding activity (in words): completely lacking in 2-5A binding activity

B2: Clone ZB1: truncated recombinant murine 2-5A-dependent RNase, amino acids 1-656 in Table II (protein, UniProt Q05921 1-656, looked up, fragment)
chain: METPDYNTPQGGTPSAGSQRTVVEDDSSLIKAVQKGDVVRVQQLLEKGADANACEDTWGWTPLHNAVQAGRVDIVNLLLSHGADPHRRKKNGATPFIIAGIQGDVKLLEILLSCGADVNECDENGFTAFMEAAERGNAEALRFLFAKGANVNLRRQTTKDKRRLKQGGATALMSAAEKGHLEVLRILLNDMKAEVDARDNMGRNALIRTLLNWDCENVEEITSILIQHGADVNVRGERGKTPLIAAVERKHTGLVQMLLSREGINIDARDNEGKTALLIAVDKQLKEIVQLLLEKGADKCDDLVWIARRNHDYHLVKLLLPYVANPDTDPPAGDWSPHSSRWGTALKSLHSMTRPMIGKLKIFIHDDYKIAGTSEGAVYLGIYDNREVAVKVFRENSPRGCKEVSCLRDCGDHSNLVAFYGREDDKGCLYVCVSLCEWTLEEFLRLPREEPVENGEDKFAHSILLSIFEGVQKLHLHGYSHQDLQPQNILIDSKKAVRLADFDQSIRWMGESQMVRRDLEDLGRLVLYVVMKGEIPFETLKTQNDEVLLTMSPDEETKDLIHCLFSPGENVKNCLVDLLGHPFFWTWENRYRTLRNVGNESDIKVRKCKSDLLRLLQHQTLEPPRSFDQWTSKIDKNVMDEMNHFYEKRKKNPYQD
[4]; uv crosslinking to 2-5A probe with competitors, protein missing about 84 carboxy-terminal amino acids
  2-5A binding activity compared with naturally occurring enzyme (in words): indistinguishable from that of naturally occurring 2-5A-dependentRNase

B3: Clone ZB1 (Lys^240,274 →Asn): double mutant of clone ZB1, lysines 240 and 274 replaced with asparagine (protein, UniProt Q05921 1-656, looked up, variant K240N K274N)
chain: METPDYNTPQGGTPSAGSQRTVVEDDSSLIKAVQKGDVVRVQQLLEKGADANACEDTWGWTPLHNAVQAGRVDIVNLLLSHGADPHRRKKNGATPFIIAGIQGDVKLLEILLSCGADVNECDENGFTAFMEAAERGNAEALRFLFAKGANVNLRRQTTKDKRRLKQGGATALMSAAEKGHLEVLRILLNDMKAEVDARDNMGRNALIRTLLNWDCENVEEITSILIQHGADVNVRGERGNTPLIAAVERKHTGLVQMLLSREGINIDARDNEGNTALLIAVDKQLKEIVQLLLEKGADKCDDLVWIARRNHDYHLVKLLLPYVANPDTDPPAGDWSPHSSRWGTALKSLHSMTRPMIGKLKIFIHDDYKIAGTSEGAVYLGIYDNREVAVKVFRENSPRGCKEVSCLRDCGDHSNLVAFYGREDDKGCLYVCVSLCEWTLEEFLRLPREEPVENGEDKFAHSILLSIFEGVQKLHLHGYSHQDLQPQNILIDSKKAVRLADFDQSIRWMGESQMVRRDLEDLGRLVLYVVMKGEIPFETLKTQNDEVLLTMSPDEETKDLIHCLFSPGENVKNCLVDLLGHPFFWTWENRYRTLRNVGNESDIKVRKCKSDLLRLLQHQTLEPPRSFDQWTSKIDKNVMDEMNHFYEKRKKNPYQD
[4]; uv crosslinking, phosphorimager analysis of dried gel, wheat germ extract translation products
  2-5A binding activity, % of the activity of clone ZB1: 12.2%

— patent US5972678A, “Animal 2-5A dependent RNases” (Cleveland Clinic Foundation, priority 1995, dated 1999)
